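Method: 48-hour compound exposure of cells in 96-well plates, five concentrations, linear interpolation of endpoints. GI50 marks 50% less growth.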 Calls of active or inactive are those of the source. Rule as the data show it: active = GI50 up to about 1.1 µM and inactive = higher.
Assays:
Test in all cases: NCI anticancer screen, dose series, 48 h
IGROV-1 = test system: IGROV-1
K562 = test system: K562
MDA-MB-231 = test system: MDA-MB-231
BT-549 = test system: BT-549
EKVX = test system: EKVX
MOLT-4 = test system: MOLT-4
SW-620 = test system: SW-620
SNB-19 = test system: SNB-19
OVCAR-3 = test system: OVCAR-3
SK-MEL-5 = test system: SK-MEL-5
HT-29 = test system: HT-29
SR = test system: SR
RPMI-8226 = test system: RPMI-8226
Malme-3M = test system: Malme-3M
SF-268 = test system: SF-268
COLO 205 = test system: COLO 205
NCI-H23 = test system: NCI-H23
NCI/ADR-RES = test system: NCI/ADR-RES
NCI-H226 = test system: NCI-H226
SF-295 = test system: SF-295

## CS(=O)(=O)NC12CCC(c3ccccc31)c1ccccc12
IGROV-1
  GI50: > 100 µM (inactive)
K562
  GI50: > 100 µM (inactive)
MDA-MB-231
  GI50: > 100 µM (inactive)
BT-549
  GI50: > 100 µM (inactive)
EKVX
  GI50: > 100 µM (inactive)
MOLT-4
  GI50: > 100 µM (inactive)
SW-620
  GI50: > 100 µM (inactive)
SNB-19
  GI50: > 100 µM (inactive)
OVCAR-3
  GI50: > 100 µM (inactive)
SK-MEL-5
  GI50: > 100 µM (inactive)
HT-29
  GI50: > 100 µM (inactive)
SR
  GI50: > 100 µM (inactive)
RPMI-8226
  GI50: > 100 µM (inactive)
Malme-3M
  GI50: > 100 µM (inactive)
SF-268
  GI50: > 100 µM (inactive)
COLO 205
  GI50: > 100 µM (inactive)
NCI-H23
  GI50: > 100 µM (inactive)
NCI/ADR-RES
  GI50: > 100 µM (inactive)
NCI-H226
  GI50: > 100 µM (inactive)

## CC1(C)CC(=O)c2c(-c3ccc(Cl)cc3)c(C#N)c(=S)n(C3OC(CO)C(O)C(O)C3O)c2C1 (stereo unspecified)
IGROV-1
  GI50: 56.8 µM (inactive)
K562
  GI50: 13.6 µM (inactive)
MDA-MB-231
  GI50: 33.5 µM (inactive)
BT-549
  GI50: 45.9 µM (inactive)
MOLT-4
  GI50: 25 µM (inactive)
SW-620
  GI50: 36.6 µM (inactive)
SNB-19
  GI50: 40.3 µM (inactive)
OVCAR-3
  GI50: 30.9 µM (inactive)
SK-MEL-5
  GI50: 15.2 µM (inactive)
HT-29
  GI50: 26.7 µM (inactive)
SR
  GI50: 22 µM (inactive)
RPMI-8226
  GI50: 22.5 µM (inactive)
Malme-3M
  GI50: 31 µM (inactive)
SF-268
  GI50: 48.3 µM (inactive)
COLO 205
  GI50: 34 µM (inactive)
NCI-H23
  GI50: 50.8 µM (inactive)
SF-295
  GI50: 38 µM (inactive)
NCI/ADR-RES
  GI50: 34.4 µM (inactive)
NCI-H226
  GI50: 20.9 µM (inactive)

## Cc1ccc(/C=C/C(=N/NC(=O)N/N=C(/C=C/c2ccc(C)cc2)C(C)(C)CN2CCCCC2)C(C)(C)CN2CCCCC2)cc1
IGROV-1
  GI50: 1.98 µM (inactive)
K562
  GI50: 0.122 µM (active)
MDA-MB-231
  GI50: 1.79 µM (inactive)
BT-549
  GI50: 2.1 µM (inactive)
EKVX
  GI50: 2.67 µM (inactive)
MOLT-4
  GI50: 0.125 µM (active)
SW-620
  GI50: 1.79 µM (inactive)
SNB-19
  GI50: 2.11 µM (inactive)
OVCAR-3
  GI50: 1.48 µM (inactive)
SK-MEL-5
  GI50: 1.67 µM (inactive)
HT-29
  GI50: 0.757 µM (active)
SR
  GI50: 0.0787 µM (active)
RPMI-8226
  GI50: 0.258 µM (active)
Malme-3M
  GI50: 1.67 µM (inactive)
SF-268
  GI50: 1.81 µM (inactive)
COLO 205
  GI50: 1.53 µM (inactive)
NCI-H23
  GI50: 2.19 µM (inactive)
SF-295
  GI50: 1.71 µM (inactive)
NCI/ADR-RES
  GI50: 1.64 µM (inactive)
NCI-H226
  GI50: 1.82 µM (inactive)

## c1csc(-c2ccc(-c3cccc4nsnc34)s2)c1
K562
  GI50: 32 µM (inactive)
MDA-MB-231
  GI50: > 100 µM (inactive)
BT-549
  GI50: > 100 µM (inactive)
EKVX
  GI50: > 100 µM (inactive)
MOLT-4
  GI50: 18.7 µM (inactive)
SW-620
  GI50: > 100 µM (inactive)
SNB-19
  GI50: > 100 µM (inactive)
OVCAR-3
  GI50: > 100 µM (inactive)
SK-MEL-5
  GI50: > 100 µM (inactive)
SR
  GI50: 13 µM (inactive)
RPMI-8226
  GI50: 85.3 µM (inactive)
Malme-3M
  GI50: > 100 µM (inactive)
SF-268
  GI50: > 100 µM (inactive)
COLO 205
  GI50: > 100 µM (inactive)
NCI-H23
  GI50: > 100 µM (inactive)
SF-295
  GI50: 44.8 µM (inactive)
NCI/ADR-RES
  GI50: > 100 µM (inactive)
NCI-H226
  GI50: > 100 µM (inactive)

## N#CC(NNC(=O)Cc1ccccc1)c1c(O)ccc2ccccc12 (stereo unspecified)
IGROV-1
  GI50: 5.31 µM (inactive)
K562
  GI50: 3.69 µM (inactive)
MDA-MB-231
  GI50: 4.19 µM (inactive)
BT-549
  GI50: 1.73 µM (inactive)
EKVX
  GI50: 5.56 µM (inactive)
MOLT-4
  GI50: 2.23 µM (inactive)
SW-620
  GI50: 6.98 µM (inactive)
SNB-19
  GI50: 9.79 µM (inactive)
OVCAR-3
  GI50: 2.99 µM (inactive)
SK-MEL-5
  GI50: 3.46 µM (inactive)
HT-29
  GI50: 11.3 µM (inactive)
SR
  GI50: 3.44 µM (inactive)
RPMI-8226
  GI50: 3.63 µM (inactive)
Malme-3M
  GI50: 4.4 µM (inactive)
SF-268
  GI50: 3.45 µM (inactive)
COLO 205
  GI50: 24.7 µM (inactive)
NCI-H23
  GI50: 4.89 µM (inactive)
SF-295
  GI50: 4.63 µM (inactive)
NCI/ADR-RES
  GI50: 2.92 µM (inactive)
NCI-H226
  GI50: 18.4 µM (inactive)

## C/C=C1/CN2CCC34C5=CC(=O)C(c6cc7c(cc6OC)N(C)C6=C(C(=O)OC)CC8(CC)CCCN9CCC67C98)=CC5=NC23CCC1C4C(=O)OC (stereo unspecified)
IGROV-1
  GI50: 17.9 µM (inactive)
K562
  GI50: 3.48 µM (inactive)
MDA-MB-231
  GI50: 10.2 µM (inactive)
BT-549
  GI50: 16 µM (inactive)
EKVX
  GI50: 13.8 µM (inactive)
MOLT-4
  GI50: 2.45 µM (inactive)
SW-620
  GI50: 8.73 µM (inactive)
SNB-19
  GI50: 16 µM (inactive)
OVCAR-3
  GI50: 14.3 µM (inactive)
SK-MEL-5
  GI50: 15.2 µM (inactive)
HT-29
  GI50: 14.2 µM (inactive)
SR
  GI50: 2.73 µM (inactive)
RPMI-8226
  GI50: 4.04 µM (inactive)
Malme-3M
  GI50: 15 µM (inactive)
SF-268
  GI50: 18 µM (inactive)
COLO 205
  GI50: 8.61 µM (inactive)
NCI-H23
  GI50: 14.8 µM (inactive)
SF-295
  GI50: 17.7 µM (inactive)
NCI/ADR-RES
  GI50: 18.8 µM (inactive)
NCI-H226
  GI50: 20.4 µM (inactive)

## COc1ccc(/C=C/C(=O)/C=C/c2ccc(OC)cc2OC)c(OC)c1
IGROV-1
  GI50: 10.1 µM (inactive)
K562
  GI50: 2.79 µM (inactive)
MDA-MB-231
  GI50: 29.9 µM (inactive)
BT-549
  GI50: 4.34 µM (inactive)
EKVX
  GI50: 9.08 µM (inactive)
MOLT-4
  GI50: 4.8 µM (inactive)
SW-620
  GI50: 5.32 µM (inactive)
SNB-19
  GI50: 12.6 µM (inactive)
OVCAR-3
  GI50: 2.76 µM (inactive)
SK-MEL-5
  GI50: 3.77 µM (inactive)
HT-29
  GI50: 2.64 µM (inactive)
SR
  GI50: 3.64 µM (inactive)
RPMI-8226
  GI50: 3.71 µM (inactive)
Malme-3M
  GI50: 4.19 µM (inactive)
SF-268
  GI50: 4.55 µM (inactive)
COLO 205
  GI50: 5.61 µM (inactive)
NCI-H23
  GI50: 10.2 µM (inactive)
SF-295
  GI50: 24.7 µM (inactive)
NCI/ADR-RES
  GI50: 8.02 µM (inactive)
NCI-H226
  GI50: 12.9 µM (inactive)

Reference: ChEMBL document CHEMBL1201862, “PubChem BioAssay data set” (2004)
